According to patent US20230226109A1, “METHOD FOR DIFFERENTIATING INNATE LYMPHOID CELLS FOR IMMUNOTHERAPY” (The Board of Trustees of the Leland Stanford Junior …, priority 2019, published 2023):

Assays:
[1] = tested on: peripheral NK cells; assay: in vitro differentiation of peripheral NK cells into ielLC1-like cells, co-culture with epithelial feeder cells; format: cell-based, human
Protocol: (A) Protocol for in vitro differentiation of peripheral NK cells into ielLC1-like cells. In brief, PCI13 cells were seeded into a culture plate, then peripheral NK cells were sorted and added to the culture (ratio 10NK:1PCI13) in the presence or not of IL15 (10 ng/mL). After 4 days of co-culture, NK cells were harvested for phenotypic and functional analysis. (B, LEFT) Dot plots show the expression of CD49a and CD103 on gated Lin^−CD45^+CD56^+ NK cells, after culture of NK with PCI13 and IL15 (10 ng/mL) or control conditions. […] (C-D) Functional response of in vitro differentiated ielLC1-like cells. […] (D) After in vitro differentiation, CD49a^− and CD49a^+ cells were sorted and mixed with PCI13 (10^6 NK cells:5.10^6 PCI13) and injected subcutaneously in the flank of NSG mice. Then, tumor volume was measured over time. […] (E) Sorted CD49a^+ and CD49a^− NK cells were assessed for expression of NR4A1, NR4A2, and NR4A3 by qRT-PCR.
In a summary of the protocol for in vitro differentiation of peripheral conventional NK cells into ielLC1-like cells: sorted, enriched, or expanded peripheral NK cells in the presence of IL15 are seeded into culture with cells such as HNSCC, which may be irradiated, or onto plate surfaces that mimic select attributes of these cells. After a suitable period of time for culture, e.g. about 4 days, the differentiated cells are harvested for analysis and effector functions.
• HNSCC cells were harvested from their culture, washed with PBS and counted. • HNSCC cells were then resuspended in media for co-culture, and seeded into plates as follows:
• NK were resuspended with media containing IL-15. • NK cells were added to the co-culture as follows:
• On day 2, half of the supernatant was replaced with fresh media containing IL-15 (20 ng/mL). Harvesting and use of ielLC1-Like Cells. • On day 4, ILC1-like cells were harvested. • Note: The harvested cells were ielLC1-like cells. HNSCC cells were killed during the culture. • ILC1-like cells were washed with PBS and counted. • ILC1-like cells were then used for phenotypic analysis and functional assays.

[2] = tested on: peripheral NK cells; assay: in vivo differentiation of peripheral NK cells injected intra-tumor into PCI13 tumors; parameters: species or system NSG mice; conditions: IL15 5 μg/mouse every 2 days, tumors harvested after 6 days
Protocol: (A) Protocol used to evaluate the in vivo differentiation of peripheral NK cells into ILC1-like cells. In brief, 10^6 PCI13 were subcutaneously injected in the flank of NSG mice, after 10-15 days (when the tumor were palpable) peripheral NK cells were obtained from blood and were injected intra-tumor. Mice were treated or not with IL15 (5 μg/mouse) every 2 days. After 6 days, tumors were harvested and the phenotype and function of intra-tumoral NK cells were assessed. (B) According to the protocol described in (A), sorted Lin^−CD56^+ NK cells were intra-tumor injected. […] (C-D) According to the protocol described in (A), sorted Lin^−CD56^+CD94^+CD16^− Stage 4b NK cells were intra-tumor injected. (C, LEFT) Dot plots show the expression of CD49a and CD103 on NK cells obtained following intra-tumor injection of sorted stage 4b NK cells, in the presence or not of IL15 in vivo. […]
10^6 PCI13 tumor cells were subcutaneously injected in the flank of NSG mice, after 10-15 days (when the tumor were palpable) peripheral NK cells were obtained from blood and were injected intra-tumor. […] After 6 days, tumors were harvested and the phenotype and function of intra-tumoral NK cells were assessed.

[3] = tested on: NK cells; assay: feeder cell-free culture of NK cells, differentiation into ielLC1-like cells; format: cell-based, human; conditions: culture plates with or without E-Cadherin coating, NK cells with IL-15, no feeder cells
Description: FIG. 7: Co-culture of peripheral NK cells with IL-15 and TGFbeta enhances differentiation into ielLC1-like cells. (A) Using a co-culture system similar to FIG. 5A, NK cells were co-cultured with MDCK (top) or PCI-13 (bottom) in the presence of IL-15 and either the TGFbeta receptor 2 inhibitor ITD1 or the ALK receptor inhibitor SB-431542 or TGFb.
FIG. 11: Feeder cell-free culture of NK cells with extracellular matrix components can induce ielLC1-like cell differentiation. Culture plates with or without E-Cadherin coating was used to culture NK cells with IL-15.

[4] = NK cells co-cultured with MDCK or PCI-13 in the presence of IL-15
[5] = NK cells with IL-15 and PCI-13 carcinoma cells

## TGFb
[1]; [4]
  ielLC1-like cell differentiation: stimulation of the ielLC1-like phenotype

## CCOC(=O)C1=C(C)NC2=C(C(=O)CC(C)(C)C2)C1c1ccc(-c2ccccc2)cc1 (centres unmarked) [ITD1]
[1]; [4]
  ielLC1-like cell differentiation: significant inhibition of ielLC1-like cell differentiation

## Cc1ccccc1N=Nc1ccc(NC(=O)c2ccnn2C)c(C)c1 [CH-223191]
[1]; [5]
  ielLC1-like cell differentiation: profound reduction of ielLC1-like differentiation

## IL-15: 14-15 kDa glycoprotein cytokine (BioLegend; Cat #570306)
[1]; NK with PCI13 (ratio 10NK:1PCI13), IL15 10 ng/mL, 4 days
  differentiation of peripheral NK into ielLC1-like cells (CD49a+, CD49a+CD103+): promotes differentiation of peripheral NK into ielLC1-like cells
[2]
  differentiation of peripheral NK into ielLC1-like cells in vivo: promotes differentiation of peripheral NK into ielLC1-like cells in vivo

## NC(=O)c1ccc(-c2nc(-c3ccc4c(c3)OCO4)c(-c3ccccn3)[nH]2)cc1 [SB-431542]
[1]; [4]
  ielLC1-like cell differentiation: significant inhibition of ielLC1-like cell differentiation

## O=Cc1c2[nH]c3ccccc3c2cc2[nH]c3ccccc3c12 [FICZ]
[1]; [5]
  ielLC1-like cell differentiation: promoted the ielLC1-like differentiation

B1: E-Cadherin: coating of culture plates, extracellular matrix component, used without feeder cells (protein, UniProt P12830 155-882, looked up)
Cadherin-1: DWVIPPISCPENEKGPFPKNLVQIKSNKDKEGKVFYSITGQGADTPPVGVFIIERETGWLKVTEPLDRERIATYTLFSHAVSSNGNAVEDPMEILITVTDQNDNKPEFTQEVFKGSVMEGALPGTSVMEVTATDADDDVNTYNAAIAYTILSQDPELPDKNMFTINRNTGVISVVTTGLDRESFPTYTLVVQAADLQGEGLSTTATAVITVTDTNDNPPIFNPTTYKGQVPENEANVVITTLKVTDADAPNTPAWEAVYTILNDDGGQFVVTTNPVNNDGILKTAKGLDFEAKQQYILHVAVTNVVPFEVSLTTSTATVTVDVLDVNEAPIFVPPEKRVEVSEDFGVGQEITSYTAQEPDTFMEQKITYRIWRDTANWLEINPDTGAISTRAELDREDFEHVKNSTYTALIIATDNGSPVATGTGTLLLILSDVNDNAPIPEPRTIFFCERNPKPQVINIIDADLPPNTSPFTAELTHGASANWTIQYNDPTQESIILKPKMALEVGDYKINLKLMDNQNKDQVTTLEVSVCDCEGAAGVCRKAQPVEAGLQIPAILGILGGILALLILILLLLLFLRRRAVVKEPLLPPEDDTRDNVYYYDEEGGGEEDQDFDLSQLHRGLDARPEVTRNDVAPTLMSVPRYLPRPANPDEIGNFIDENLKAADTDPTAPPYDSLLVFDYEGSGSEAASLSSLNSSESDKDQDYDYLNEWGNRFKKLADMYGGGEDD
[3]
  formation of ielLC1-like cells: enhanced formation of the ielLC1-like cells
